Laboratory results: patent US9592221B2, “Antibacterial agents: aryl myxopyronin derivatives” (priority 2012, dated 2017)
≈ marks a conversion by molar mass, not a printed value.

How the values were obtained:
[1] = biological target: E. coli RNA polymerase σ^70 holoenzyme (Escherichia coli, UniProt P0A8T7+P0A8V2); test: Fluorescence-detected RNA polymerase assay, E. coli RNA polymerase; format: biochemical; conditions: read-out: IC50 E. coli RNAP
[2] = biological target: S. aureus RNA polymerase core enzyme, S. aureus σ^A (Staphylococcus aureus, UniProt P47768+Q2G0N5); test: Fluorescence-detected RNA polymerase assay, S. aureus RNA polymerase; format: biochemical; conditions: read-out: IC50 S. aureus RNAP
Chain of S. aureus RNA polymerase core enzyme, S. aureus σ^A (Q2G0N5 whole entry): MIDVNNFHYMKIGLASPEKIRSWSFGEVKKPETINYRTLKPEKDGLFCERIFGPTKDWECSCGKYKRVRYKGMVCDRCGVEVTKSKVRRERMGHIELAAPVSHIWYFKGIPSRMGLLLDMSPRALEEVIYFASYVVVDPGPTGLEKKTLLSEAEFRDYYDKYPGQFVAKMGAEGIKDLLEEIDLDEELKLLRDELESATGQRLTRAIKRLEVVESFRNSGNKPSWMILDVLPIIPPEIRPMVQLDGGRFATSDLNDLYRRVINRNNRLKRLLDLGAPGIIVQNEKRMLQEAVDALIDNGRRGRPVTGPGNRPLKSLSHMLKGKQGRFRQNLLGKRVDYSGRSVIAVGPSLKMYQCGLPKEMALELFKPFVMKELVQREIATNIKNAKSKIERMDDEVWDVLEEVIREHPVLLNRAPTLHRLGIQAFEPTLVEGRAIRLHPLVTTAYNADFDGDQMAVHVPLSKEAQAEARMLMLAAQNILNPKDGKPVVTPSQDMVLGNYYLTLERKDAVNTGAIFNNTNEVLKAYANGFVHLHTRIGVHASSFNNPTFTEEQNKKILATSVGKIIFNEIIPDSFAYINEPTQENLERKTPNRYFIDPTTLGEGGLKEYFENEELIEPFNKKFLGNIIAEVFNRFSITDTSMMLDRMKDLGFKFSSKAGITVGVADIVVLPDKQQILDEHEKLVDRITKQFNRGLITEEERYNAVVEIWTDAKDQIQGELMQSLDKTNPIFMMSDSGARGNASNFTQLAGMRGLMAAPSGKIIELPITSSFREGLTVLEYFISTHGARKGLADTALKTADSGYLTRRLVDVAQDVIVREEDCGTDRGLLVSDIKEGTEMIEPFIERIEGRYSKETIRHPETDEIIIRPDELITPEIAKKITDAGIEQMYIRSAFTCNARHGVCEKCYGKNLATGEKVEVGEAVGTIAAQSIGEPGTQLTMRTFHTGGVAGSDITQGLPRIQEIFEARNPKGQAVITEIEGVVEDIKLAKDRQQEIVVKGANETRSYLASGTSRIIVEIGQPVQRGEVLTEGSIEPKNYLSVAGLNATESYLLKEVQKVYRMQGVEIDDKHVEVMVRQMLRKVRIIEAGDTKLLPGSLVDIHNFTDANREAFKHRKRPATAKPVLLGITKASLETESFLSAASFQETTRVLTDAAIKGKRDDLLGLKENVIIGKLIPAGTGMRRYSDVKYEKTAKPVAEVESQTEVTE
Chain of S. aureus RNA polymerase core enzyme, S. aureus σ^A (Q2FW32 whole entry, further chain): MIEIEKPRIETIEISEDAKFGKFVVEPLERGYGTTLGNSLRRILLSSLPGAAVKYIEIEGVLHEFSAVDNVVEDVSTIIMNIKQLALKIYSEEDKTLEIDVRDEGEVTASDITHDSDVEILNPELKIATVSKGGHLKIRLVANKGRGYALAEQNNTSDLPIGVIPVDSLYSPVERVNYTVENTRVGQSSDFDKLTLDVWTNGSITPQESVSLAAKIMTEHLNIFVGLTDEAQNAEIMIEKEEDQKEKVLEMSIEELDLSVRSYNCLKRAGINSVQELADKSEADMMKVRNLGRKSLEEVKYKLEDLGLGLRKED
Chain of S. aureus RNA polymerase core enzyme, S. aureus σ^A (P0A0J0 whole entry, further chain): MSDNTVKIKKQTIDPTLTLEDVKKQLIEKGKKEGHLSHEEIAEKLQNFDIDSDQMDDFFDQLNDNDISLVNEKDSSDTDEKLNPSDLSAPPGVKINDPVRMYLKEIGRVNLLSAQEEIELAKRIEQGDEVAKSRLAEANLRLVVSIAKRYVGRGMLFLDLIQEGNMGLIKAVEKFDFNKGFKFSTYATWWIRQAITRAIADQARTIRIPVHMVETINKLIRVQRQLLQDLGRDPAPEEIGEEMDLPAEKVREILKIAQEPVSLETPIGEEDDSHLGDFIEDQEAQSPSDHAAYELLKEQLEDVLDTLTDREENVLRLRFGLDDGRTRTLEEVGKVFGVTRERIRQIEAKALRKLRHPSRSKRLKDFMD
Chain of S. aureus RNA polymerase core enzyme, S. aureus σ^A (P47768 whole entry): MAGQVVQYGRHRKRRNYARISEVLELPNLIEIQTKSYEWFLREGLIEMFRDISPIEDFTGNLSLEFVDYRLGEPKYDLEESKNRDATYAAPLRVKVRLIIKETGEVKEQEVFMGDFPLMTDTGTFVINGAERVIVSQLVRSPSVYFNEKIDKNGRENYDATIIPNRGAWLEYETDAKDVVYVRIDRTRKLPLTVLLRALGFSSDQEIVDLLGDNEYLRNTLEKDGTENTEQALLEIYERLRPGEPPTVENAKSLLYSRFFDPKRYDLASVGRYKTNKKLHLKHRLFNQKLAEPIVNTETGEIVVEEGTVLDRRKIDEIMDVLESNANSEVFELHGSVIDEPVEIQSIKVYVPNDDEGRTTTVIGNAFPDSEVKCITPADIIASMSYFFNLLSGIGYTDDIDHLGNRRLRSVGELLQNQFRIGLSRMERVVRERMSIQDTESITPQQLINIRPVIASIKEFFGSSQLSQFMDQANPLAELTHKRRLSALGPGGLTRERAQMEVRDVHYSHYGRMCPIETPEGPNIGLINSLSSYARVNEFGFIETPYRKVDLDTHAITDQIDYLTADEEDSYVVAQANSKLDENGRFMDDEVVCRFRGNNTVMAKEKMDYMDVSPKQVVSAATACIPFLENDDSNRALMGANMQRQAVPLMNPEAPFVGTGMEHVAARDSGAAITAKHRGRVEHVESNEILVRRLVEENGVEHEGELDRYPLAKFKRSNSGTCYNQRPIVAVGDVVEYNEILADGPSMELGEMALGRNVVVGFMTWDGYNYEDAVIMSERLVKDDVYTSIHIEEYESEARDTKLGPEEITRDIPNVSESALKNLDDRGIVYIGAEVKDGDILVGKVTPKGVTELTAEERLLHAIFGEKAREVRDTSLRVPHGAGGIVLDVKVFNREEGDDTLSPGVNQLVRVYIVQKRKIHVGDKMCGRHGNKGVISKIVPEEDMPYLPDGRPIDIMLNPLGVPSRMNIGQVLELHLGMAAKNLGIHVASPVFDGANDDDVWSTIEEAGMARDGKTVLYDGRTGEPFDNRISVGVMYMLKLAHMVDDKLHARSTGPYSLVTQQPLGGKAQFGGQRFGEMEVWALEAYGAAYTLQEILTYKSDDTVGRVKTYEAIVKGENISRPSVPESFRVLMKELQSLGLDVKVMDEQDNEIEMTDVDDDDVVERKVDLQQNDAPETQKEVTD

[3] = biological target: M. tuberculosis RNA polymerase core enzyme, M. tuberculosis σ^A (Mycobacterium tuberculosis, UniProt P9WGY7+P9WGY9); test: Fluorescence-detected RNA polymerase assay, M. tuberculosis RNA polymerase; format: biochemical; conditions: read-out: IC50 M. tuberculosis RNAP
[4] = system: Staphylococcus aureus ATCC 12600; test: MIC, spiral gradient endpoint assay, S. aureus ATCC 12600; format: cell-based; conditions: ATCC12600; Staphylococcus aureus ATCC 12600
[5] = system: Acinetobacter baumannii ATCC 19606; test: MIC, spiral gradient endpoint assay, A. baumannii; format: cell-based; conditions: ATCC19606; Acinetobacter baumannii ATCC 19606
[6] = system: Escherichia coli D21f2tolC; test: MIC, spiral gradient endpoint assay, E. coli D21f2tolC; format: cell-based; conditions: Escherichia coli, D21F2TOLC, read-out: MIC E. coli D21f2toIC
[7] = system: Mycobacterium tuberculosis H37Rv; test: MIC, microplate Alamar Blue assay, M. tuberculosis; format: cell-based
[8] = system: Bacillus anthracis Vollum 1b; test: microbe, parasite or virus in culture; format: cell-based; conditions: Bacillus anthracis, VOLLUM1B, read-out: MIC B. anthracis Vollum-1b
[9] = system: Francisella tularensis SCHU4; test: microbe, parasite or virus in culture; format: cell-based; conditions: Francisella tularensis, SCHU4, read-out: MIC F. tularensis SCHU4
Yersinia pestis C092 = test: microbe, parasite or virus in culture; format: cell-based; conditions: Yersinia pestis, C092, read-out: MIC Y. pestis C092
Burkholderia mallei CHN7 = test: microbe, parasite or virus in culture; format: cell-based; conditions: Burkholderia mallei, CHN7, read-out: MIC B. mallei CHN7
[10] = system: Burkholderia pseudomallei Human/Blood/OH/US/1994; test: microbe, parasite or virus in culture; format: cell-based; conditions: Burkholderia pseudomallei, read-out: MIC B. pseudomallei Human/Blood/OH
Brucella melitensis 16M = test: microbe, parasite or virus in culture; format: cell-based; conditions: Brucella melitensis, 16M, read-out: MIC B. melitensis 16M

CCCCCCc1ccc(C=C(C)C(=O)c2c(O)cc(C(C)CC/C=C/NC(=O)OC)oc2=O)s1 (mixture of isomers) [APY15, methyl (E)-5-(3-((E/Z)-3-(5-hexylthiophen-2-yl)-2-methylacryloyl)-4-hydroxy-2-oxo-2H-pyran-6-yl)hex-1-enylcarbamate]
IC50 [1]: 5 nM
IC50 [2]: 20 nM
IC50 [3]: 200 nM
MIC [4]: 0.9 µg/mL
MIC [5]: 6 µg/mL
MIC [6]: 0.08 µg/mL
MIC [7]: > 50 µg/mL
MIC [8]: 0.4 µg/mL
MIC [9]: 0.4 µg/mL
MIC (Yersinia pestis C092): 3 µg/mL
MIC (Burkholderia mallei CHN7): 0.8 µg/mL
MIC [10]: 3 µg/mL
MIC (Brucella melitensis 16M): 0.4 µg/mL

CCCCc1ccc(C=C(C)C(=O)c2c(O)cc(C(C)CC/C=C/NC(=O)OC)oc2=O)s1 (mixture of isomers) [APY16, methyl (E)-5-(3-((E/Z)-3-(5-butylthiophen-2-yl)-2-methylacryloyl)-4-hydroxy-2-oxo-2H-pyran-6-yl)hex-1-enylcarbamate]
IC50 [1]: 30 nM
IC50 [2]: 100 nM
IC50 [3]: 300 nM
MIC [4]: 0.6 µg/mL
MIC [5]: 20 µg/mL
MIC [6]: 0.1 µg/mL
MIC [7]: 30 µg/mL
MIC [8]: 2 µg/mL
MIC [9]: 0.8 µg/mL
MIC (Yersinia pestis C092): 10 µg/mL
MIC (Burkholderia mallei CHN7): 2 µg/mL
MIC [10]: 6 µg/mL
MIC (Brucella melitensis 16M): 0.8 µg/mL

CCCCCCc1ccc(C=C(C)C(=O)c2c(O)cc(C(C)CC/C=C/NC(=O)OC)oc2=O)o1 (mixture of isomers) [APY17, methyl (E)-5-(3-((E/Z)-3-(5-hexylfuran-2-yl)-2-methylacryloyl)-4-hydroxy-2-oxo-2H-pyran-6-yl)hex-1-enylcarbamate]
IC50 [1]: 20 nM
IC50 [2]: 100 nM
IC50 [3]: 900 nM
MIC [4]: 8 µg/mL
MIC [5]: 10 µg/mL
MIC [6]: 0.1 µg/mL
MIC [7]: 10 µg/mL
MIC [8]: 2 µg/mL
MIC [9]: 0.8 µg/mL
MIC (Yersinia pestis C092): 10 µg/mL
MIC (Burkholderia mallei CHN7): 3 µg/mL
MIC [10]: 30 µg/mL
MIC (Brucella melitensis 16M): 2 µg/mL

CCCCCCc1csc(C=C(C)C(=O)c2c(O)cc(C(C)CC/C=C/NC(=O)OC)oc2=O)c1 (mixture of isomers) [APY18, methyl (E)-5-(3-((E/Z)-3-(4-hexylthiophen-2-yl)-2-methylacryloyl)-4-hydroxy-2-oxo-2H-pyran-6-yl)hex-1-enylcarbamate]
IC50 [1]: 7 nM
IC50 [2]: 70 nM
IC50 [3]: 600 nM
MIC [4]: 4 µg/mL
MIC [5]: 4 µg/mL
MIC [6]: 0.07 µg/mL
MIC [7]: 10 µg/mL
MIC [8]: 2 µg/mL
MIC [9]: 3 µg/mL
MIC (Yersinia pestis C092): 6 µg/mL
MIC (Burkholderia mallei CHN7): 2 µg/mL
MIC [10]: 6 µg/mL
MIC (Brucella melitensis 16M): 0.8 µg/mL

CCCCCCc1coc(C=C(C)C(=O)c2c(O)cc(C(C)CC/C=C/NC(=O)OC)oc2=O)c1 (mixture of isomers) [APY19, methyl (E)-5-(3-((E/Z)-3-(4-hexylfuran-2-yl)-2-methylacryloyl)-4-hydroxy-2-oxo-2H-pyran-6-yl)hex-1-enylcarbamate]
IC50 [1]: 7 nM
IC50 [2]: 30 nM
IC50 [3]: 400 nM
MIC [4]: 2 µg/mL
MIC [5]: 10 µg/mL
MIC [6]: 0.1 µg/mL
MIC [7]: 6 µg/mL
MIC [8]: 2 µg/mL
MIC [9]: 6 µg/mL
MIC (Yersinia pestis C092): 6 µg/mL
MIC (Burkholderia mallei CHN7): 0.8 µg/mL
MIC [10]: 3 µg/mL
MIC (Brucella melitensis 16M): 0.4 µg/mL

CCCCc1cc(C)c(C=C(C)C(=O)c2c(O)cc(C(C)CC/C=C/NC(=O)OC)oc2=O)s1 (mixture of isomers) [APY75, methyl (E)-5-(3-((E/Z)-3-(5-butyl-3-methylthiophen-2-yl)-2-methylacryloyl)-4-hydroxy-2-oxo-2H-pyran-6-yl)hex-1-enylcarbamate]
IC50 [1]: 9 nM
IC50 [2]: 80 nM
IC50 [3]: 60 nM
MIC [4]: 0.3 µg/mL
MIC [5]: 4 µg/mL
MIC [6]: 0.1 µg/mL
MIC [7]: 30 µg/mL
MIC [8]: 0.8 µg/mL
MIC [9]: 10 µg/mL
MIC (Burkholderia mallei CHN7): 6 µg/mL
MIC [10]: 6 µg/mL
MIC (Brucella melitensis 16M): 3 µg/mL

COC(=O)N/C=C/CCC(C)c1cc(O)c(C(=O)C(C)=Cc2sc(CCC(C)C)cc2C)c(=O)o1 (mixture of isomers) [APY76, methyl (E)-5-(3-((E/Z)-3-(5-isopentyl-3-methylthiophen-2-yl)-2-methylacryloyl)-4-hydroxy-2-oxo-2H-pyran-6-yl)hex-1-enylcarbamate]
IC50 [1]: 3 nM
IC50 [2]: 80 nM
IC50 [3]: 50 nM
MIC [4]: 0.2 µg/mL
MIC [5]: 4 µg/mL
MIC [6]: 0.09 µg/mL
MIC [7]: 30 µg/mL
MIC [8]: 0.4 µg/mL
MIC [9]: 10 µg/mL
MIC (Burkholderia mallei CHN7): 6 µg/mL
MIC [10]: 6 µg/mL
MIC (Brucella melitensis 16M): 3 µg/mL

CCCCc1ccc2cc(C=C(C)C(=O)c3c(O)cc(C(C)CC/C=C/NC(=O)OC)oc3=O)oc2c1 (mixture of isomers) [APY84, methyl ((1E)-5-(3-(3-(6-butylbenzofuran-2-yl)-2-methylacryloyl)-4-hydroxy-2-oxo-2H-pyran-6-yl)hex-1-en-1-yl)carbamate]
IC50 [1]: 2 nM
IC50 [2]: 60 nM
IC50 [3]: 20 nM
MIC [4]: 3 µg/mL
MIC [5]: > 40 µg/mL
MIC [6]: 0.1 µg/mL
MIC [7]: 30 µg/mL

CCCCc1ccc2cc(C=C(C)C(=O)c3c(O)cc(C(C)CC/C=C/NC(=O)OC)oc3=O)sc2c1 (mixture of isomers) [APY86, methyl ((1E)-5-(3-(3-(6-butylbenzo[b]thiophen-2-yl)-2-methylacryloyl)-4-hydroxy-2-oxo-2H-pyran-6-yl)hex-1-en-1-yl)carbamate]
IC50 [1]: 20 nM
IC50 [2]: 300 nM
IC50 [3]: 1000 nM
MIC [4]: > 40 µg/mL
MIC [5]: > 40 µg/mL
MIC [6]: 0.2 µg/mL
MIC [7]: > 50 µg/mL

CCCCc1ccc(C=C(C)C(=O)c2c(O)cc(C(C)CC/C=C/NC(=O)OC)oc2=O)c(C)c1 (mixture of isomers) [APY87, methyl ((1E)-5-(3-(3-(4-butyl-2-methylphenyl)-2-methylacryloyl)-4-hydroxy-2-oxo-2H-pyran-6-yl)hex-1-en-1-yl)carbamate]
IC50 [1]: 10 nM
IC50 [2]: 70 nM
IC50 [3]: 30 nM
MIC [4]: 1 µg/mL
MIC [5]: > 40 µg/mL
MIC [6]: 0.2 µg/mL
MIC [7]: > 50 µg/mL

COC(=O)N/C=C/CCC(C)c1cc(O)c(C(=O)C(C)=Cc2ccc(CCCCC(F)(F)F)s2)c(=O)o1 (mixture of isomers) [APY98, methyl ((1E)-5-(4-hydroxy-3-(2-methyl-3-(5-(5,5,5-trifluoropentyl)thiophen-2-yl)acryloyl)-2-oxo-2H-pyran-6-yl)hex-1-en-1-yl)carbamate]
IC50 [1]: 6 nM
IC50 [3]: 40 nM
MIC [4]: 1 µg/mL
MIC [5]: 20 µg/mL
MIC [6]: 0.1 µg/mL
MIC [7]: 50 µg/mL

CCOc1ccc(C=C(C)C(=O)c2c(O)cc(C(C)CC/C=C/NC(=O)OC)oc2=O)s1 (mixture of isomers) [APY102, methyl ((1E)-5-(3-(3-(5-ethoxythiophen-2-yl)-2-methylacryloyl)-4-hydroxy-2-oxo-2H-pyran-6-yl)hex-1-en-1-yl)carbamate]
IC50 [1]: 200 nM
IC50 [3]: 500 nM
MIC [4]: 10 µg/mL
MIC [5]: > 40 µg/mL
MIC [6]: 1 µg/mL
MIC [7]: 30 µg/mL

CCCOc1ccc(C=C(C)C(=O)c2c(O)cc(C(C)CC/C=C/NC(=O)OC)oc2=O)s1 (mixture of isomers) [APY103, methyl ((1E)-5-(4-hydroxy-3-(2-methyl-3-(5-propoxythiophen-2-yl)acryloyl)-2-oxo-2H-pyran-6-yl)hex-1-en-1-yl)carbamate]
IC50 [1]: 20 nM
IC50 [3]: 20 nM
MIC [4]: 2 µg/mL
MIC [5]: > 40 µg/mL
MIC [6]: 0.4 µg/mL
MIC [7]: 30 µg/mL

CCCCc1ccc2c(c1)cc(C=C(C)C(=O)c1c(O)cc(C(C)CC/C=C/NC(=O)OC)oc1=O)n2C (mixture of isomers) [APY104, methyl ((1E)-5-(3-(3-(5-butyl-1-methyl-1H-indol-2-yl)-2-methylacryloyl)-4-hydroxy-2-oxo-2H-pyran-6-yl)hex-1-en-1-yl)carbamate]
IC50 [1]: 8 nM
IC50 [3]: 200 nM
MIC [4]: 5 µg/mL
MIC [5]: 9 µg/mL
MIC [6]: 0.1 µg/mL
MIC [7]: > 50 µg/mL

COC(=O)N/C=C/CCC(C)c1cc(O)c(C(=O)C(C)=Cc2ccc(CCCCCF)s2)c(=O)o1 (centres unmarked) [APY97, methyl ((1E)-5-(3-(3-(5-(5-fluoropentyl)thiophen-2-yl)-2-methylacryloyl)-4-hydroxy-2-oxo-2H-pyran-6-yl)hex-1-en-1-yl)carbamate]
IC50 [1]: 20 nM
IC50 [2]: 400 nM
MIC [4]: 2 µg/mL (≈ 3.96 µM)
MIC [5]: > 40 µg/mL
MIC [6]: 0.1 µg/mL (≈ 0.198 µM)
MIC [7]: > 50 µg/mL
